One assay addresses BCKDC kinase (BDK) (Rattus norvegicus, UniProt Q00972). Put plainly: Protection of E1 from BDK induced phosphorylation and inactivation. In kind it is biochemical. The note with it: for kcat, KIC / kcat, KIV / kcat, KMV / Km: E1 decarboxylase activity, [+] Phenylbutyrate^b. The procedure: To determine the effect of phenylbutyrate on individual BCAA catabolic enzymes, activities of mitochondrial branched chain amino transferase (BCATm) and BCKDC enzymes were measured with and without phenylbutyrate using purified recombinant enzymes. BCATm generates the BCKA products that are elevated in MSUD and are the substrates for BCKDC. BCATm activity was measured at pH 8.0 and 298 K as described in Example 2. Kinetics of the E1 decarboxylase reaction with and without phenylbutyrate were determined in the presence of an artificial electron acceptor 2, 6-dichlorophenolindophenol (DCPIP). The assay mixture contained 100 mM potassium phosphate, pH 7.5, 2.0 mM MgCl2, 0.2 mM thiamin diphosphate (ThDP) and 0.1 mM DCPIP. The rate of decarboxylation at 30° C. was measured by monitoring the reduction of the dye at 600 nm (24, 25). For the overall BCKDC activity assay, the enzymes were exchanged into phosphate buffer (30 mM potassium phosphate, pH 7.5) containing 5 mM DTT using a PD-10 column and the enzyme concentrations were calculated from the absorption maxima at 280 nm. The protein complex was reconstituted with E1, lipoylated E2 (lip-E2) and E3 at a molar ratio of 12:1:55, in which lip-E2 exists as a 24-mer. The assay mixture contained 30 mM potassium phosphate pH 7.5, 100 mM NaCl, 3 mM NAD^+, 0.4 mM CoA, 2 mM MgCl2, 2 mM DTT, 0.1% Triton X-100, and 2 mM ThDP. The overall reaction was monitored by formation of NADH at 340 nm. The apparent rate constants (kapp) at different substrate concentrations for all of the above assays were determined from the absorption changes at the individual wavelength maximum. The kapp rate constants were fit using the following equation: kapp=kcat[S]/(Km+[S])
The phosphorylation of E1 was carried out in the phosphorylation reaction mix (30 mM HEPES, pH 7.4, 2 mM DTT, 1.5 mM MgCl2, and 0.2 mM EGTA) with and without addition of phenylbutyrate. E1, E2, and E3 proteins were mixed at 12:1:55 molar ratio in a 0.1 ml reaction mix, and 0.1 μg of maltose-binding protein-tagged rat BCKDC kinase (BDK) was added. The mix was pre-incubated at room temperature for 15 minutes. The phosphorylation reaction was started after addition of 0.4 mM ATP to the reaction mix, and the reaction was terminated at different time points by addition of higher salt concentration. Overall BCKDC activity was measured as described above.

Another assay has as its target T1, BCKDC (Homo sapiens, UniProt P12694+P21953).
T1 sequence (P12694 46-445): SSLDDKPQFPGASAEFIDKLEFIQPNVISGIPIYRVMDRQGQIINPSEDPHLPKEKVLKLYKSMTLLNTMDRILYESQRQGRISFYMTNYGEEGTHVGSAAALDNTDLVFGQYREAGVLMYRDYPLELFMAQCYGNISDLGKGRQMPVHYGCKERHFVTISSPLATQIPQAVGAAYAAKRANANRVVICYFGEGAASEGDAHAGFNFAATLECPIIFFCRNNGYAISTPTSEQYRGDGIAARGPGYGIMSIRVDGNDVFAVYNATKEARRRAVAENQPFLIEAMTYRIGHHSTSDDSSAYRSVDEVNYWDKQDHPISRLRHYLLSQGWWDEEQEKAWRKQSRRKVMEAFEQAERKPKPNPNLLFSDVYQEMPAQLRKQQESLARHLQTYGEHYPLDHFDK
T1 sequence (P21953 51-392): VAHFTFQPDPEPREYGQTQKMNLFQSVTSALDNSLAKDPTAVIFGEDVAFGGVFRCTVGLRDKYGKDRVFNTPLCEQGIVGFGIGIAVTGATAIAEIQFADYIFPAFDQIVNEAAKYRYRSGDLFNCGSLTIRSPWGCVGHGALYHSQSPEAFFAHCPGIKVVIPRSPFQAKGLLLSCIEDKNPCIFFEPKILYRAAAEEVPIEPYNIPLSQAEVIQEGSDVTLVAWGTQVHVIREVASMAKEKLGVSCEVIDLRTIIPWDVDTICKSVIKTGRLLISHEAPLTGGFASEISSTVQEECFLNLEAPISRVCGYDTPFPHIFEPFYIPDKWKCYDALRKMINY
Put plainly: Leucine oxidation in lymphoblast cells in presence of CIC. In kind it is cell-based. Set-up: Transformed lymphoblast cell lines were available from all 5 MSUD patients and from 2 controls to measure BCKDC activity; endogenous in cells. The note with it: control lymphoblasts, 1 mM phenylbutyrate 48 h, 1 mM CIC in the assay. The procedure:
FIGS. 8A-8C. FIGS. 8A and 8B show leucine oxidation in presence of CIC in lymphoblast cells from control subjects (C-660, C-661) and MSUD patients (P-1, -2, -3, -4, -5) untreated or treated with 1 mM phenylbutyrate for 48 h. Leucine oxidation was measured by using radioactive assay as described in Materials and Methods and is expressed in pmol CO2 released/min/mg protein. CIC was added to all reactions in 1 mM concentration. Values are means±SD (n=3), * p≥0.05, **p≥0.01. […] Images are representative of two independent experiments.
Because phenylbutyrate affects E1α phosphorylation state in vivo (see FIG. 5), leucine oxidation was measured in the same cell lines as in FIG. […] with CIC in the assay. […] Changes in BCAT isoenzyme activity also impacts BCKA production, in specific cases. All patient cell lines accumulated more KIC than observed in control cell lines.

Like-named read-outs stand apart in the source and are kept apart here.

`O=C([O-])CCCc1ccccc1.[Na+]` [phenylbutyrate, sodium 4-phenylbutyrate]: on BCKDC kinase (BDK), the “phosphorylation and inactivation of E1 in the presence of BCKDC kinase” value is on record as “prevent completely”. Besides, the figures for the “kcat, KIC” value at BCKDC kinase (BDK) ([+] BDK) and at BCKDC kinase (BDK) ([−] BDK) were 0.343 ± 0.0417 s⁻¹ and 0.33 ± 0.0283 s⁻¹, respectively. In addition, the figures for the “kcat, KIV” value at BCKDC kinase (BDK) ([+] BDK) and at BCKDC kinase (BDK) ([−] BDK) were 0.433 ± 0.0367 s⁻¹ and 0.467 ± 0.0317 s⁻¹, respectively. Besides, the “kcat, KMV” value on BCKDC kinase (BDK) ([+] BDK) stood at 0.367 ± 0.03 s⁻¹; on BCKDC kinase (BDK) ([−] BDK) it was 0.333 ± 0.0183 s⁻¹. Also, the Km was determined as 21 ± 1.9 µM on BCKDC kinase (BDK) ([+] BDK, read-out: Km, KIC); 25 ± 2 µM on BCKDC kinase (BDK) ([+] BDK, read-out: Km, KIV); 21 ± 3 µM at BCKDC kinase (BDK) ([+] BDK, read-out: Km, KMV); 27 ± 2 µM at BCKDC kinase (BDK) ([−] BDK, read-out: Km, KIC); 20 ± 3 µM at BCKDC kinase (BDK) ([−] BDK, read-out: Km, KIV); 18 ± 2 µM on BCKDC kinase (BDK) ([−] BDK, read-out: Km, KMV). The leucine oxidation result on BCKDC was “increased”.

The values above are taken from US11786494B2, “Methods of modulation of branched chain acids and uses thereof” (Baylor College of Medicine, priority 2009, dated 2023).
